tested on: human platelet suspension; assay: U46619-induced platelet aggregation in human platelet suspension; assay type: cell-based; conditions: Homo sapiens, Platelet, U46619-induced aggregation, platelet suspension; read-out: P.S(U46619) IC50
Method: Human platelet suspension (PS) was prepared according to the method described previously. Briefly, blood sample, freshly obtained from healthy volunteers who had taken no medications during the preceding 2 weeks, was treated with acid citrate/dextrose (ACD) in a volume ratio of 9:1. After centrifugation at 120 g, 25° C. for 9 min, platelet-rich plasma was transferred into another plastic tube and incubated with heparin (6.4 U/ml) as well as prostaglandin E1 (1 μM). Platelets were spun down by centrifugation at 500 g, 25° C. for 8 min and subsequently washed two times with Tyrode solution (NaH2PO4 0.4 mM; NaCl 136.9 mM; KCl […]; NaHCO3 11.9 mM; CaCl2 2 mM; MgCl2 2.1 mM; glucose 11.1 mM; BSA 3.5 mg/ml; pH 7.35-7.4). The washed platelets were finally suspended in Tyrode's solution and the platelet count was adjusted to 3.75×10^8 platelets/ml. For platelet-rich plasma (PRP) preparation, whole blood was anticoagulated with 1/10 vol of sodium citrate (3.8%, w/v) and centrifuged at 150 g, 25° C. for 9 min.
Platelet aggregation was measured turbidimetrically with a Lumi-aggregometer (Payton Scientific) at 37° C. under stirring condition (900 rpm). Platelet suspensions were prewarmed to 37° C. for 2 min in a silicone-treated glass cuvette. Nstpbp5185 was added 3 min before the addition of platelet-aggregation inducers. The extent of platelet aggregation was determined by recording the increase of light transmission relative to that of control (maximal aggregation, as 100%) for 6 min after the addition of inducer. The final volume and platelet count for measuring platelet aggregation were 500 μl and 3×10^8/ml, respectively.

IC50	Compound
4.42 µM	Cc1ccc(-c2nc3ccc(Cl)cc3n2Cc2cccc(F)c2)o1 [Example 47b, 6-chloro-1-(3-fluorobenzyl)-2-(5-methyl-2-furyl)benzimidazole]
3.13 µM	Cc1ccc(-c2nc3ccc(Cl)cc3n2Cc2ccc(F)cc2)o1 [Example 46a, 6-chloro-1-(4-fluorobenzyl)-2-(5-methyl-2-furyl)benzimidazole]
53.4 µM	Cc1ccc(Cn2c(-c3ccc(C)o3)nc3ccc(Cl)cc32)cc1 [Example 51a, 6-chloro-1-(4-methylbenzyl)-2-(5-methyl-2-furyl)benzimidazole]
36.5 µM	Cc1ccc(-c2nc3ccc(Cl)cc3n2Cc2ccc(Cl)cc2)o1 [Example 43a, 6-chloro-1-(4-chlorobenzyl)-2-(5-methyl-2-furyl) benzimidazole]
3.2 µM	Cc1ccc(-c2nc3ccc(Cl)cc3n2Cc2ccccc2C)o1 [Example 53b, 6-chloro-1-(2-methylbenzyl)-2-(5-methyl-2-furyl)benzimidazole]
4.43 µM	Cc1ccc(-c2nc3cc(Cl)ccc3n2Cc2ccccc2)o1 [Example 42b, 1-benzyl-5-chloro-2-(5-methyl-2-furyl)benzimidazole]
27.4 µM	COc1cccc(Cn2c(-c3ccc(C)o3)nc3ccc(Cl)cc32)c1 [Example 50b, 6-chloro-1-(3-methoxybenzyl)-2-(5-methyl-2-furyl)benzimidazole]
127 µM	Cc1ccc(-c2nc3cc(Cl)ccc3n2Cc2ccc(Cl)cc2)o1 [Example 43b, 5-chloro-1-(4-chlorobenzyl)-2-(5-methyl-2-furyl)benzimidazole]
38 µM	COc1cccc(Cn2c(-c3ccc(C)o3)nc3cc(Cl)ccc32)c1 [Example 50a, 5-chloro-1-(3-methoxybenzyl)-2-(5-methyl-2-furyl)benzimidazole]
9.74 µM	Cc1ccc(-c2nc3cc(Cl)ccc3n2Cc2cccc(Cl)c2)o1 [Example 44a, 5-chloro-1-(3-chlorobenzyl)-2-(5-methyl-2-furyl)benzimidazole]
3.11 µM	Cc1ccc(-c2nc3ccc(Cl)cc3n2Cc2ccccc2F)o1 [Example 48b, 6-chloro-1-(2-fluorobenzyl)-2-(5-methyl-2-furyl)benzimidazole]
7.52 µM	Cc1ccc(-c2nc3ccc(Cl)cc3n2Cc2ccccc2Cl)o1 [Example 45b, 6-chloro-1-(2-chlorobenzyl)-2-(5-methyl-2-furyl)benzimidazole]
3.1 µM	Cc1ccc(-c2nc3ccc(Cl)cc3n2Cc2cccc(Cl)c2)o1 [Example 44b, 6-chloro-1-(3-chlorobenzyl)-2-(5-methyl-2-furyl)benzimidazole]

The next lines start with the compound.

Compound	IC50
Cc1cccc(Cn2c(-c3ccc(C)o3)nc3ccc(F)cc32)c1 [Example 40b, 6-Fluoro-1-(3-methylbenzyl)-2-(5-methyl-2-furyl)benzimidazole]	5.39 µM
COc1cccc(Cn2c(-c3ccc(C)o3)nc3cc(Cl)c(Cl)cc32)c1 [Example 62, 5,6-Dichloro-1-(3-methoxybenzyl)-2-(5-methyl-2-furyl)benzimidazole]	8.88 µM
Cc1ccc(-c2nc3ccc(F)cc3n2Cc2ccccc2Cl)o1 [Example 31b, 6-fluoro-1-(2-chlorobenzyl)-2-(5-methyl-2-furyl)benzimidazole]	12.7 µM
COc1ccc2c(c1)nc(-c1ccc(C)o1)n2Cc1ccccc1 [Example 25b, 1-benzyl-5-methoxy-2-(5-methyl-2-furyl)benzimidazole]	3.3 µM
COc1cccc(Cn2c(-c3ccc(C)o3)nc3ccc(C(=O)c4ccccc4)cc32)c1 [Example 77, 6-benzoyl-1-(3-methoxybenzyl)-2-(5-methyl-2-furyl)benzimidazole]	> 50 µM
Cc1ccc(-c2nc3cc(F)ccc3n2Cc2ccccc2F)o1 [Example 38a, 5-fluoro-1-(2-fluorobenzyl)-2-(5-methyl-2-furyl)benzimidazole]	4.14 µM
Cc1ccc(-c2nc3cc(Cl)c(Cl)cc3n2Cc2ccccc2F)o1 [Example 65, 5,6-dichloro-1-(2-fluorobenzyl)-2-(5-methyl-2-furyl) benzimidazole]	8.32 µM
Cc1ccc(-c2nc3ccc(F)cc3n2Cc2ccccc2C)o1 [Example 41b, 6-fluoro-1-(2-methylbenzyl)-2-(5-methyl-2-furyl)benzimidazole]	2.38 µM
Cc1ccc(-c2nc3ccc(C(=O)c4ccccc4)cc3n2Cc2cccc(F)c2)o1 [Example 79, 6-Benzoyl-1-(3-fluorobenzyl)-2-(5-methyl-2-furyl)benzimidazole]	> 50 µM
Cc1cccc(Cn2c(-c3ccc(C)o3)nc3cc(Cl)c(Cl)cc32)c1 [Example 67, 5,6-dichloro-1-(3-methylbenzyl)-2-(5-methyl-2-furyl)benzimidazole]	6.52 µM
Cc1ccc(-c2nc3cc(Cl)c(Cl)cc3n2Cc2cccc(Cl)c2)o1 [Example 59, 5,6-dichloro-1-(3-chlorobenzyl)-2-(5-methyl-2-furyl)benzimidazole]	3.74 µM
COc1ccc(Cn2c(-c3ccc(C)o3)nc3cc(Cl)c(Cl)cc32)cc1 [Example 61, 5,6-dichloro-1-(4-methoxybenzyl)-2-(5-methyl-2-furyl)benzimidazole]	26.9 µM
Cc1ccc(Cn2c(-c3ccc(C)o3)nc3cc(Cl)c(Cl)cc32)cc1 [Example 66, 5,6-dichloro-1-(4-methylbenzyl)-2-(5-methyl-2-furyl)benzimidazole]	40.3 µM
Cc1ccc2[nH]c(-c3ccc(C)o3)nc2c1 [Example 29, 5-methyl-2-(5-methyl-2-furyl)benzimidazole]	33.7 µM
Cc1ccc(-c2nc3ccc(F)cc3n2Cc2ccccc2)o1 [Example 30a, 1-benzyl-6-fluoro-2-(5-methyl-2-furyl)benzimidazole]	6.79 µM
Cc1ccc(Cn2c(-c3ccc(C)o3)nc3ccc(C(=O)c4ccccc4)cc32)cc1 [Example 81, 6-benzoyl-1-(4-methylbenzyl)-2-(5-methyl-2-furyl)benzimidazole]	> 50 µM

Compound	IC50
Cc1ccc(-c2nc3cc(Cl)ccc3[nH]2)o1 [Example 42]	37.3 µM
Cc1ccc(-c2nc3cc(F)ccc3n2Cc2cccc(F)c2)o1 [Example 37a, 5-fluoro-1-(3-fluorobenzyl)-2-(5-methyl-2-furyl)benzimidazole]	1.7 µM
Cc1ccc(-c2nc3ccc(F)cc3n2Cc2cccc(F)c2)o1 [Example 37b, 6-fluoro-1-(3-fluorobenzyl)-2-(5-methyl-2-furyl)benzimidazole]	1.17 µM
Cc1ccc(-c2nc3cc(Cl)c(Cl)cc3n2Cc2cccc(F)c2)o1 [Example 64, 5,6-dichloro-1-(3-fluorobenzyl)-2-(5-methyl-2-furyl)benzimidazole]	1.74 µM
COc1ccc(Cn2c(-c3ccc(C)o3)nc3cc(F)ccc32)cc1 [Example 34a, 5-fluoro-1-(4-methoxybenzyl)-2-(5-methyl-2-furyl)benzimidazole]	34.5 µM
Cc1ccc(-c2nc3ccccc3n2Cc2ccncc2)o1 [Example 24, 1-(4-Picoyl)-2-(5-methyl-2-furyl)benzimidazole]	14.6 µM
COc1ccc2[nH]c(-c3ccc(C)o3)nc2c1 [Example 25, 5-Methoxy-2-(5-methyl-2-furyl)benzimidazole]	44.5 µM
Cc1ccc(-c2nc3ccc(C(=O)c4ccccc4)cc3n2Cc2ccc(F)cc2)o1 [Example 78, 6-benzoyl-1-(4-fluorobenzyl)-2-(5-methyl-2-furyl)benzimidazole]	25.8 µM
COc1ccc2nc(-c3ccc(C)o3)n(Cc3ccccc3)c2c1 [Example 25a, 1-benzyl-6-methoxy-2-(5-methyl-2-furyl)benzimidazole]	1.45 µM
Cc1ccc(-c2nc3cc(Cl)c(Cl)cc3n2Cc2ccccc2Cl)o1 [Example 60, 5,6-dichloro-1-(2-chlorobenzyl)-2-(5-methyl-2-furyl)benzimidazole]	42.9 µM
Cc1ccc(-c2nc3cc(Cl)c(Cl)cc3n2Cc2ccc(F)cc2)o1 [Example 63, 5,6-dichloro-1-(4-fluorobenzyl)-2-(5-methyl-2-furyl)benzimidazole]	2.68 µM
Cc1ccc(-c2nc3ccccc3n2Cc2cccnc2)o1 [Example 23, 1-(3-Picoyl)-2-(5-methyl-2-furyl)benzimidazole]	3.01 µM
Cc1ccc(-c2nc3cc(Cl)c(Cl)cc3n2Cc2ccc([N+](=O)[O-])cc2)o1 [Example 55, 5,6-dichloro-1-(4-nitrobenzyl)-2-(5-methyl-2-furyl)benzimidazole]	> 50 µM
Cc1ccc(-c2nc3ccc(C(=O)c4ccccc4)cc3[nH]2)o1 [Example 69, 6-benzoyl-2-(5-methyl-2-furyl)benzimidazole]	> 50 µM
Cc1ccc(-c2nc3cc(Cl)c(Cl)cc3n2Cc2ccccc2C)o1 [Example 68, 5,6-dichloro-1-(2-methylbenzyl)-2-(5-methyl-2-furyl)benzimidazole]	5.69 µM
Cc1ccc(-c2nc3ccc(F)cc3n2Cc2ccccc2F)o1 [Example 38b, 6-Fluoro-1-(2-fluorobenzyl)-2-(5-methyl-2-furyl)benzimidazole]	2.7 µM

same assay, conditions: U46619 1 μM; indomethacin concentration not given

Compound	effect on U46619-induced platelet aggregation
COc1ccc2c(c1)c(CC(=O)O)c(C)n2C(=O)c1ccc(Cl)cc1 [indomethacin, reference compound]	without effects
